From US20230263903A1, “PYRAZOLOAZEPINE IMMUNOCONJUGATES, AND USES THEREOF” (BOLT BIOTHERAPEUTICS, INC., priority 2020, published 2023)

Tests used:
[1] = molecular target: T1, human TLR7 (Homo sapiens, UniProt Q9NYK1); experiment: HEK Reporter Assay, HEK293 cells expressing human TLR7; format: cell-based; details: for EC50: HEK293 NFKB reporter cells expressing human TLR7, read-out: HEK293 hTLR7 EC50; for TLR7 activity relative to known TLR7 adjuvant C-1: HEK human TLR7 activity at 24 hours, FIG. 1
T1 construct: host or cells: HEK293 NF-kB reporter cells
T1 sequence (Q9NYK1 27-1049): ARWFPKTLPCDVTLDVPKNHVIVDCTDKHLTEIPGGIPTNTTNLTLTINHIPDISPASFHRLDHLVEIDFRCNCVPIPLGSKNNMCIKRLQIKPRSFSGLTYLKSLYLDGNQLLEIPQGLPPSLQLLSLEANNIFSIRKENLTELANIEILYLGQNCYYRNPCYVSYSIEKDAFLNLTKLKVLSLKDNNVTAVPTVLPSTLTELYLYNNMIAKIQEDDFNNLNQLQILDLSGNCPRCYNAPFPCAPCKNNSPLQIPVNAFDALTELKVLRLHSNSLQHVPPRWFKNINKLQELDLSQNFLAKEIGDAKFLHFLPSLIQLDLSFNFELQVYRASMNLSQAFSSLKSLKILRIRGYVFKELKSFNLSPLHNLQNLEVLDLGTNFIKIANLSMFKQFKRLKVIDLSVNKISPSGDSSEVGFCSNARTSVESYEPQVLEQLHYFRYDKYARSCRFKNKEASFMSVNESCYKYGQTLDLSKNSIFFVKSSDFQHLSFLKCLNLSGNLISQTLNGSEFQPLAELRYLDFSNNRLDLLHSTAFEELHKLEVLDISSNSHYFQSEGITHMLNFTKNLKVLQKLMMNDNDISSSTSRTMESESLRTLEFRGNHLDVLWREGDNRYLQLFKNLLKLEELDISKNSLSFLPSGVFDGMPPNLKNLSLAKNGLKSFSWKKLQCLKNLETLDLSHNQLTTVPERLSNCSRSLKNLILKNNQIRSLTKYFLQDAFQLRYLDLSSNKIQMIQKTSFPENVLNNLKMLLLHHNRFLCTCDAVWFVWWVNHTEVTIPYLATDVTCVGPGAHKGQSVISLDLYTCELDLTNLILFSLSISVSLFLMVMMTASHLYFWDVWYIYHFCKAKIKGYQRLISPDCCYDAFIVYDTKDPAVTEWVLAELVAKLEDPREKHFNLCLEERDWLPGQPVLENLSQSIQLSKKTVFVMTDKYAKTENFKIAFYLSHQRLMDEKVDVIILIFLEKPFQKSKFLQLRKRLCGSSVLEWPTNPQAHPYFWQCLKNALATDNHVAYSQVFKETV
Procedure: (§1) Activity against HEK293 NFKB reporter cells expressing human TLR7 or human TLR8 was measured according to Example 202.
(§2) Example 202 HEK Reporter Assay
(§3) HEK293 reporter cells expressing human TLR7 or human TLR8 were purchased from Invivogen and vendor protocols were followed for cellular propagation and experimentation. Briefly, cells were grown to 80-85% confluence at 5% CO2 in DMEM supplemented with 10% FBS, Zeocin, and Blasticidin. Cells were then seeded in 96-well flat plates at 4×10^4 cells/well with substrate containing HEK detection medium and immunostimulatory molecules.

[2] = molecular target: T2, human TLR8 (Homo sapiens, UniProt Q9NR97); experiment: HEK Reporter Assay, HEK293 cells expressing human TLR8; format: cell-based; details: for EC50: HEK293 NFKB reporter cells expressing human TLR8, read-out: HEK293 hTLR8 EC50
T2 construct: host or cells: HEK293 NF-kB reporter cells
T2 sequence (Q9NR97 27-1041): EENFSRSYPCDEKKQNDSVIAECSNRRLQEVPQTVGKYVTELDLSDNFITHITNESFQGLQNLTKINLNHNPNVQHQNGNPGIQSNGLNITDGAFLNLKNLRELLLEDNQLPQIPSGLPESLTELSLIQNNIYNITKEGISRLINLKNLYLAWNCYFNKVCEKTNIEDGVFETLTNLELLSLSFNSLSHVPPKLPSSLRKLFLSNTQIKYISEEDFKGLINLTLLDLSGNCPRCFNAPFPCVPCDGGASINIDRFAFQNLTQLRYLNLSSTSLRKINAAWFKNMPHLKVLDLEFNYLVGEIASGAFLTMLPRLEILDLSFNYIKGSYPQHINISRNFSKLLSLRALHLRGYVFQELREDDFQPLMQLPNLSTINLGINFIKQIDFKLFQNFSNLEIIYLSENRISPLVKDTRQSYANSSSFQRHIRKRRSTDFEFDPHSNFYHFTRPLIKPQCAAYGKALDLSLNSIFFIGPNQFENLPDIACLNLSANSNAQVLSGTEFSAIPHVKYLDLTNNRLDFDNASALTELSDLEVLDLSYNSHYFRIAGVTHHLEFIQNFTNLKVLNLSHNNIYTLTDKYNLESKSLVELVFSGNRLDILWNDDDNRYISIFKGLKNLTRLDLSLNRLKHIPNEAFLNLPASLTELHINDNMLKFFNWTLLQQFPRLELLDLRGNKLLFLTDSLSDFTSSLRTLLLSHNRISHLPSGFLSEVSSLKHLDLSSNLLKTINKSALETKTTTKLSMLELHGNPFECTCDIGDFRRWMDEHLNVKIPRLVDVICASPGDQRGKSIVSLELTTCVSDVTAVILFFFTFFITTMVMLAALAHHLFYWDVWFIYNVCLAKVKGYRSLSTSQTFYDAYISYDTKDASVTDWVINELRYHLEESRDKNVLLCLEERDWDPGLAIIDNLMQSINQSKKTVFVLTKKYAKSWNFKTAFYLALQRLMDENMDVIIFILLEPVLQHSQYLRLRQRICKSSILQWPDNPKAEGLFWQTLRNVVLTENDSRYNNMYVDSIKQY
Procedure: as §1, §2, §3

[3] = Hydrophilicity comparison with comparator C-2; format: physicochemical

Structure (SMILES)	EC50 [1] [µM]	EC50 [2] [µM]	TLR7 activity relative to known TLR7 adjuvant C-1 [1]	TLR8 potency relative to known TLR8 adjuvant C-2 ([2]; HEK human TLR8 activity at 24 hours, FIG. 2)	hydrophilicity relative to C-2 [3]
CCCN(CCC)C(=O)C1=Cc2ccc(-c3cccc(S(=O)(=O)N4CC(CO)C4)c3)cc2N=C(N)C1 [C-2, reference compound]	> 9	1.59			
CCCN(CCC)C(=O)C1=Cc2c(cnn2C)N=C(N)C1 [PAZ-1, 5-amino-1-methyl-N,N-dipropyl-1,6-dihydropyrazolo[4,3-b]azepine-7-carboxamide]	> 9	4.15			
CCCN(CCC)C(=O)C1=Cc2nn(CCCCCN)cc2N=C(N)C1 [PAZ-3]	> 9	> 9			
CCCN(CCC)C(=O)C1=Cc2nn(C)cc2N=C(N)C1 [PAZ-6, 5-amino-2-methyl-N,N-dipropyl-6H-pyrazolo[4,3-b]azepine-7-carboxamide]	> 9	4.05			
CCCN(CCCNC(=O)CC(C)(C)C)C(=O)C1=Cc2nn(CCCCCN)cc2N=C(N)C1 [PAZ-9, 5-amino-2-(5-aminopentyl)-N-[3-(3,3-dimethylbutanoylamino)propyl]-N-propyl-6H-pyrazolo[4,3-b]azepine-7-carboxamide]	> 9	> 9			
CCCN(CCCNC(=O)CC(C)(C)C)C(=O)C1=Cc2nn(CCCCCNC(=O)OC(C)(C)C)cc2N=C(N)C1 [PAZ-10, tert-butyl N-[5-[5-amino-7-[3-(3,3-dimethylbutanoylamino)propyl-propyl-carbamoyl]-6H-pyrazolo[4,3-b]azepin-2-yl]pentyl]carbamate]	> 9	3.23			
CCCN(CCC)C(=O)C1=Cc2c(cnn2Cc2ccc(CNC(=O)OC(C)(C)C)cc2)N=C(N)C1 [PAZ-13, tert-butyl N-[[4-[[5-amino-7-(dipropylcarbamoyl)-6H-pyrazolo[4,3-b]azepin-1-yl]methyl]phenyl]methyl]carbamate]	0.881	3.84			
CCCN(CCC)C(=O)C1=Cc2c(cnn2Cc2ccc(CN)cc2)N=C(N)C1 [PAZ-14, 5-amino-1-[[4-(aminomethyl)phenyl]methyl]-N,N-dipropyl-6H-pyrazolo[4,3-b]azepine-7-carboxamide]	5.59	> 9			
CCCN(CCCNC(=O)OC1CCC1)C(=O)C1=Cc2c(cnn2CCCCCN)N=C(N)C1 [PAZ-15, cyclobutyl (3-(5-amino-1-(5-aminopentyl)-N-propyl-1,6-dihydropyrazolo[4,3-b]azepine-7-carboxamido)propyl)carbamate]	> 9	> 9			

Continued, values first:

EC50 [1] [µM]	EC50 [2] [µM]	TLR7 activity relative to known TLR7 adjuvant C-1 [1]	TLR8 potency relative to known TLR8 adjuvant C-2 ([2]; HEK human TLR8 activity at 24 hours, FIG. 2)	hydrophilicity relative to C-2 [3]	Structure (SMILES)
> 9	2.96	comparable TLR7 activity			CCCN(CCC)C(=O)C1=Cc2c(cnn2CCCCCN)N=C(N)C1 [PAZ-2, 5-amino-1-(5-aminopentyl)-N,N-dipropyl-6H-pyrazolo[4,3-b]azepine-7-carboxamide]
2.92	3.1				CCCN(CCC)C(=O)C1=Cc2c(cnn2CCCCCNC(=O)OC(C)(C)C)N=C(N)C1 [PAZ-4, tert-butyl N-[5-[5-amino-7-(dipropylcarbamoyl)-6H-pyrazolo[4,3-b]azepin-1-yl]pentyl]carbamate]
> 9	> 9				CCCN(CCC)C(=O)C1=Cc2nn(CCCCCNC(=O)OC(C)(C)C)cc2N=C(N)C1 [PAZ-5]
> 9	> 9				CCCN(CCCNC(=O)CC(C)(C)C)C(=O)C1=Cc2c(cnn2CCCCCN)N=C(N)C1 [PAZ-7, 5-amino-1-(5-aminopentyl)-N-[3-(3,3-dimethylbutanoylamino)propyl]-N-propyl-6H-pyrazolo[4,3-b]azepine-7-carboxamide]
2.75	> 9				CCCN(CCCNC(=O)CC(C)(C)C)C(=O)C1=Cc2c(cnn2CCCCCNC(=O)OC(C)(C)C)N=C(N)C1 [PAZ-8, tert-butyl N-[5-[5-amino-7-[3-(3,3-dimethylbutanoylamino)propyl-propyl-carbamoyl]-6H-pyrazolo[4,3-b]azepin-1-yl]pentyl]carbamate]
0.795	1.49	comparable TLR7 activity	better TLR8 potency	improved hydrophilicity	CCCN(OCC)C(=O)C1=Cc2c(cnn2CCCCCNC(=O)OC(C)(C)C)N=C(N)C1 [PAZ-11, tert-butyl N-[5-[5-amino-7-[ethoxy(propyl)carbamoyl]-6H-pyrazolo[4,3-b]azepin-1-yl]pentyl]carbamate]
3.21	0.29				CCCN(OCC)C(=O)C1=Cc2c(cnn2CCCCCN)N=C(N)C1 [PAZ-12, 5-amino-1-(5-aminopentyl)-N-ethoxy-N-propyl-6H-pyrazolo[4,3-b]azepine-7-carboxamide]
